According to patent US20040254173A1, “Modulation of dopamine responses with substituted (S)-2,3-benzodiazepines” (priority 2003, published 2004):

Columns and labels:
[1] = tested on: apomorphine-induced hypothermia, stereotypies and climbing; test: Low Dose Apomorphine Test in the mouse; assay type: in vivo; conditions: for STEREOTYPY (intensity score), 20 min after apomorphine, mean ± s.e.m. / STEREOTYPY (intensity score), 50 min after apomorphine, mean ± s.e.m.: 4 point scale (0-3); for CLIMBING (No. of mice), 20 minutes after apomorphine / CLIMBING (No. of mice), 50 minutes after apomorphine: 6 mice per group; for Rectal Temperature, 30 min after apomorphine, mean ± s.e.m. / Rectal Temperature, 60 min after apomorphine, mean ± s.e.m. / Rectal Temperature, before apomorphine, mean ± s.e.m.: mouse; for Rectal Temperature, 30 min after apomorphine, mean change from control / Rectal Temperature, 60 min after apomorphine, mean change from control / STEREOTYPY (intensity score), 20 min after apomorphine, mean change from control / STEREOTYPY (intensity score), 50 min after apomorphine, mean change from control: vs vehicle; for Rectal Temperature, before apomorphine, mean ± s.e.m.: 30 min after test substance
From the text: Racemic tofisopam, (R)-tofisopam and (S)-tofisopam were investigated in the Low Dose Apomorphine Test in the mouse to evaluate their pro- or anti-dopaminergic activity following intraperitoneal (i.p.) administration of apomorphine. Apomorphine, at a low dose, induces hypothermia, stereotypies and climbing. All three of these symptoms are potentiated by dopaminergic agonists and antagonized by dopamine antagonists, such as classical neuroleptics. The Low Dose Apomorphine Test, thus serves to detect pro- or antidopaminergic activity. The test was performed according to the protocols described by Chermat and Poncelet. See, Chermat R., Poncelet M., “Antagonisme des redressements, des stéréotypies et de l'hypotheimie induits par 1 ou 16 mg.kg-1 d'apomorphine,” J. Pharmacol., 14, 93-97, 1983.
Male mice of Rj: NMRI strain, 23-26 g body weight range were supplied by Elevage Janvier, 53940 Le Genest-Saint-Isle, France. The animals were delivered to the laboratory at least 3 days before the experiment and, upon arrival, were housed 10 per cage in macrolon cages (25×19×13 cm) containing wood shavings (Litalabo-SPPS, 95100 Argenteuil, France) with free access to food (UAR 113-UAR, 91360 Epinay-sur-Orge, France) and tap water (i.e. non-fasted) until tested. The animal house was maintained under artificial lighting (12 hours) between 7.00 and 19.00 in a controlled ambient temperature of 21±1° C., and relative humidity maintained at 40-70%.
The different treatments were equally distributed between the animals. During the experiment, each animal within a cage received the same treatment. Animals within a cage were individually marked on the tail with an indelible pen.
The experiment was conducted blind with treatment vials labeled A, B, C etc., according to a standardized coding procedure. The evaluation of the different treatments was balanced over time by testing successive series of individual animals from each treatment group in a fixed rotation (A, B, C, etc.). Animals were sacrificed at the end of the experiment by exposure to CO2.
Three compounds, racemic tofisopam, (R)-tofisopam and (S)-tofisopam were tested in the Low Dose Apomorphine Test. Each of these three compounds was dosed as a dispersion in 0.2% hydroxypropylmethylcellulose (HPMC) (Sigma), in sterile physiological saline (Laboratoire Aguettant).
Two reference standards were also dosed. Bromocriptine, methanesulfonate (Sigma), a known dopamine agonist, and haloperidol (Sigma), a known dopamine antagonist, were dispersed in 0.2% HPMC in sterile physiological saline.
Apomorphine hydrochloride, the dopamine mimetic employed in the assay, was dissolved in water for injectable preparation (Laboratoire Aguettant). Dosing: All of the dosed substances were administered in a volume of 10 ml/kg. The doses are expressed in mg/kg of supplied substance.
6 mice were studied per group. The test was performed blind.
Racemic tofisopam, (R)-tofisopam and (S)-tofisopam were administered at doses of 16, 32 and 64 mg/kg, administered intraperitonealy (i.p.), 30 minutes prior to administration of apomorphine.
The rectal temperature of the mice was measured prior to apomorphine dosing using a rectal probe (Physitemp Instruments Digital Laboratory Thermometer Model BAT-12). The mice were then placed in individual Plexiglas cages (10×6×4 cm) attached with the opening against a vertical wire grid.
The mice were then injected subcutaneously (s.c.) with apomorphine (1 mg/kg). Rectal temperature was measured 30 and 60 minutes after the injection of apomorphine.
The intensity of stereotypies (sniffing, licking, gnawing), were scored at 20 minutes and 50 minutes after injection of apomorphine on a 4 point scale (0-3). The presence (1) or absence (0) of climbing against the wire grid wall, were also assessed 20 and 50 minutes after injection of apomorphine.
The reference standards bromocriptine (16 mg/kg) and haloperidol (0.5 mg/kg), were administered under the same experimental conditions.

central BZ receptors = conditions: cited from earlier work
peripheral BZ receptors = peripheral BZ receptors (Homo sapiens, UniProt P30536); conditions: cited from earlier work
[2] = 16 mg/kg i.p. 30 min before apomorphine 1 mg/kg s.c.
[3] = 32 mg/kg i.p. 30 min before apomorphine 1 mg/kg s.c.
[4] = 64 mg/kg i.p. 30 min before apomorphine 1 mg/kg s.c.

Chain of peripheral BZ receptors (P30536 whole entry): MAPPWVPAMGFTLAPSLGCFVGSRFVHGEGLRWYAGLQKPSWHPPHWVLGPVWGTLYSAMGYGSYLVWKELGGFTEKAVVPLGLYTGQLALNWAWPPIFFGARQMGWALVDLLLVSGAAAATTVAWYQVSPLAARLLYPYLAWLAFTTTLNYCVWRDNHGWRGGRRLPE

Compound: CCC1C(C)=NN=C(c2ccc(OC)c(OC)c2)c2cc(OC)c(OC)cc21 (racemic) [Racemic tofisopam, racemic-1-(3,4-dimethoxyphenyl)-4-methyl-5-ethyl-7,8-dimethoxy-5H-2,3-benzodiazepine]
- STEREOTYPY (intensity score), 20 min after apomorphine, mean ± s.e.m. [1, 2]: 3.0 ± 0.0
- STEREOTYPY (intensity score), 50 min after apomorphine, mean ± s.e.m. [1, 2]: 0.7 ± 0.2
- CLIMBING (No. of mice), 20 minutes after apomorphine [1, 2]: 6 No. of mice
- CLIMBING (No. of mice), 50 minutes after apomorphine [1, 2]: 3 No. of mice
- Rectal Temperature, 30 min after apomorphine, mean ± s.e.m. [1, 2]: 35.3 ± 0.6 °C
- Rectal Temperature, 60 min after apomorphine, mean ± s.e.m. [1, 2]: 36.9 ± 0.3 °C
- Rectal Temperature, 30 min after apomorphine, mean change from control [1, 2]: +0.2 °C
- Rectal Temperature, 60 min after apomorphine, mean change from control [1, 2]: +0.2 °C
- STEREOTYPY (intensity score), 20 min after apomorphine, mean change from control [1, 2]: +0.8
- STEREOTYPY (intensity score), 50 min after apomorphine, mean change from control [1, 2]: −0.3
- Rectal Temperature, before apomorphine, mean ± s.e.m. ([1]; 16 mg/kg i.p.): 37.3 ± 0.1 °C
- STEREOTYPY (intensity score), 20 min after apomorphine, mean ± s.e.m. [1, 3]: 2.8 ± 0.2
- STEREOTYPY (intensity score), 50 min after apomorphine, mean ± s.e.m. [1, 3]: 0.8 ± 0.3
- CLIMBING (No. of mice), 20 minutes after apomorphine [1, 3]: 6 No. of mice
- CLIMBING (No. of mice), 50 minutes after apomorphine [1, 3]: 5 No. of mice
- Rectal Temperature, 30 min after apomorphine, mean ± s.e.m. [1, 3]: 34.3 ± 0.5 °C
- Rectal Temperature, 60 min after apomorphine, mean ± s.e.m. [1, 3]: 36.6 ± 0.3 °C
- Rectal Temperature, 30 min after apomorphine, mean change from control [1, 3]: −0.8 °C
- Rectal Temperature, 60 min after apomorphine, mean change from control [1, 3]: −0.1 °C
- STEREOTYPY (intensity score), 20 min after apomorphine, mean change from control [1, 3]: +0.6
- STEREOTYPY (intensity score), 50 min after apomorphine, mean change from control [1, 3]: −0.2
- Rectal Temperature, before apomorphine, mean ± s.e.m. ([1]; 32 mg/kg i.p.): 37.1 ± 0.2 °C
- STEREOTYPY (intensity score), 20 min after apomorphine, mean ± s.e.m. [1, 4]: 2.3 ± 0.2
- STEREOTYPY (intensity score), 50 min after apomorphine, mean ± s.e.m. [1, 4]: 1.3 ± 0.2
- CLIMBING (No. of mice), 20 minutes after apomorphine [1, 4]: 6 No. of mice
- CLIMBING (No. of mice), 50 minutes after apomorphine [1, 4]: 4 No. of mice
- Rectal Temperature, 30 min after apomorphine, mean ± s.e.m. [1, 4]: 33.9 ± 0.5 °C
- Rectal Temperature, 60 min after apomorphine, mean ± s.e.m. [1, 4]: 36.3 ± 0.3 °C
- Rectal Temperature, 30 min after apomorphine, mean change from control [1, 4]: −1.2 °C
- Rectal Temperature, 60 min after apomorphine, mean change from control [1, 4]: −0.4 °C
- STEREOTYPY (intensity score), 20 min after apomorphine, mean change from control [1, 4]: +0.1
- STEREOTYPY (intensity score), 50 min after apomorphine, mean change from control [1, 4]: +0.3
- Rectal Temperature, before apomorphine, mean ± s.e.m. ([1]; 64 mg/kg i.p.): 37.2 ± 0.2 °C
- behaviour on apomorphine-induced hypothermia (rectal temperature) ([1]; 64 mg/kg, thirty and sixty minute time points, trend not statistically significant): weak dopamine antagonist
- behaviour on apomorphine-induced stereotypies ([1]; 16 and 32 mg/kg, twenty minute time point, significant only at 16 mg/kg): strong dopamine agonist
- interaction with central BZ receptors (central BZ receptors): does not interact
- binding to peripheral BZ receptors (peripheral BZ receptors): binds only weakly
